Results: US10301267B2, “Compounds” (AstraZeneca AB, priority 2006, dated 2019)
Where two headings read alike, the source gives them in different places.

Columns and labels:
[1] = tested on: bFGF stimulated Erk phosphorylation in NIH 3T3 cells; assay: Cell pErk - growth factor stimulated Erk phosphorylation; format: cell-based; details: Mus musculus
Source text: Cell Assays Cell pErk—Growth Factor Stimulated Erk Phosphorylation
These and other assays were used to evaluate the ability of a test compound to inhibit growth factor stimulated cellular signalling in mammalian cell lines. This was achieved by measuring the amount of receptor tyrosine kinase regulated Erk phosphorylation within a cell following compound treatment.
NIH 3T3 (ECACC, 93061524) cells were routinely passaged in DMEM (Gibco BRL, 41966) plus 10% foetal calf serum (FCS), 1% L-glutamine (Gibco BRL, 25030) to a confluence not greater than 80%. To undertake the assay, NIH 3T3's were seeded at 1×10^4 cells/well in DMEM plus 10% foetal calf serum, 1% L-glutamine in 96 well plates (Costar, 3904) and incubated at 37° C. (+5% CO2) in a humidified incubator. Once the cells had fully adhered (typically following 4-5 hours incubation) the media was removed from each well and the cells gently washed with 100 μl warm serum free media. 90 μl of serum free DMEM plus 1% L-glutamine was then added to each well and the plates were returned to a humidified 37° C. (+5% CO2) incubator. The following day, the plates were dosed with 10 μl compound (diluted from 10 mM stock in DMSO using serum free DMEM) and the plates were returned to a humidified 37° C. (+5% CO2) incubator for one hour. NIH 3T3 cells were then stimulated with a final concentration of 3 ng/ml bFGF (Sigma, F0291) for 20 minutes at 37° C. Following stimulation the cells were fixed by adding formaldehyde (4% v/v final concentration) and incubating at room temperature for 20 minutes. The fixative solution was then removed and the wells were washed twice with 100 μl phosphate buffered saline (PBS/A) before permeabilising the cells by the addition of 50 μl/well 0.1% triton/PBS/A for 10 minutes at room temperature. The permeabilisation solution was then removed and the cells washed twice more with 100 μl/well PBS/A before the addition of 50 μl/well anti-phospho p44/42 antibody (Cell Signalling Technology, 9106), diluted 1/500 with PBS/A plus 10% FCS. The anti-phospho p44/42 antibody recognises Erk phosphorylated at threonine 202 and tyrosine 204. Following incubation at room temperature for 2 hours, the antibody solution was removed and the wells were washed twice with 100 μl/well PBS/A. 50 μl/well 1/250 goat anti-mouse alexa fluor 488 secondary antibody (Molecular Probes, A11001) and 1/10000 Hoescht (Molecular Probes, H-3570) diluted with PBS/A plus 10% FCS was added and the plate incubated in the dark at room temperature for one hour. Finally, the plates were washed three times with 100 μl/well PBS/A, leaving the final wash in the wells before sealing the plates. The plates were read at 350 nm and 488 nm using an Arrayscan (Cellomics). […] IC50 value is the concentration of test compound that inhibits 50% of Erk phosphorylation.

[2] = target: T1, His6-tagged FGFR kinase domain (Homo sapiens, UniProt P11362, C488A/C584S); assay: FGFR Kinase assay - Elisa; format: biochemical
T1 construct: FGFR kinase domain (amino acids 458-765, C488A, C584S) N-terminally fused to a His6-tag and TEV cleavage site; His6-tag plus linker and TEV cleavage site (printed as X1); made in house
Experimental: To determine inhibition of FGFR activity, kinase assays were conducted using ELISA (Enzyme-Linked Immunosorbent Assay) technology.
Kinase activity assays were performed in 384-well polypropylene plates (Matrix, Catalogue No. 4311. Matrix are part of Thermo Fisher Scientific, 22 Friars Drive, Hudson, N.H. 03051, USA) with a total volume of 40 μl in each well. Each well was coated with 2 μg of polyEAY substrate (Sigma, Catalogue No. P3899) at 4° C. overnight. The plates were then washed once with 100 μl PBS and once with 100 μl 50 mM HEPES (pH 7.4) prior to the addition of the kinase assay reagents. Reactions contained His6-tagged FGFR kinase domain (FGFR kinase domain (amino acids 458-765, C488A, C584S) N-terminally fused to a His6-tag and TEV cleavage site encoded by the following sequence; [[…]]. The final alanine denotes the start of the FGFR protein sequence. The resultant protein was expressed and purified based on Mohammadi et al, Cell Vol 86, 577-587 (1996). Each kinase reaction contained 0.1 ng His6-tagged FGFR kinase domain, 50 mM HEPES (pH 7.4), 0.1 mM Na3VO4, 0.1 mM DTT, 0.05% (v/v) Triton X100, 20 mM MgCl2, 160 μM ATP. Various concentrations of test compounds were each added in 5% (v/v) DMSO to yield a final assay DMSO concentration of 1.25% (v/v). The kinase reactions were incubated at room temperature for 45 minutes and stopped by washing the plate three times with 100 μl PBS plus 0.05% Tween. 40 μl of a one in 10000 dilution of 4G10-HRP antibody (Upstate Biotechnology, UBI 16-105. Upstate are part of Millipore Corporation, 290 Concord Road, Billerca Mass. 01821 USA) made up in 0.5% (w/v) BSA/PBS was then added to each well and the plates incubated at room temperature for one hour. Following this, the plates were then washed repeatedly with 100 μl PBS plus 0.05% Tween to remove all traces of the antibody solution. 40 μl of 50 μg/ml 3,3′,5,5′-Tetramethylbenzidine (Sigma, Catalogue No. T2885), 0.05M phosphate-citrate buffer, containing 0.03% sodium perborate was added to each well and the plates incubated at room temperature for twelve minutes. The colour reaction was stopped by the addition of 20 μl 2M H2SO4 and the plates read at 450 nm on a Spectrafluor Plus (Tecan Trading AG, Switzerland). In the assay, compounds were tested at a range of concentrations.
Percentage inhibition at 1 uM, as expressed herein, is a calculated value based on the curve fit that was generated experimentally. From the fitted curve plot, the effect of compound at a concentration of 1 uM was calculated as a percentage inhibition. The IC50 value is the concentration of test compound that inhibits 50% of FGFR kinase activity.

FGFR1 active kinase [3] = target: T2, FGFR1 active kinase (Homo sapiens, UniProt P11362); assay: FGFR Kinase assay - Caliper; format: biochemical; on FGFR Kinase assay - Caliper, IC50: 408 µM ATP
FGFR1 active kinase [4] = target: T2, FGFR1 active kinase; assay: FGFR Kinase assay - Caliper Echo Dosing; format: biochemical; details: FGFR1 7.2 nM, 408 uM ATP, acoustic dosing; geometric mean of n
[5] = target: T3, transiently expressed FGFR1 IIIc in Cos-1 cells (Homo sapiens, UniProt P11362); assay: Cell FGFR1 - cell based inhibition of transiently expressed FGFR1 IIIc phosphorylation; details: phospho-FGFR1
T3 construct: The clone was full-length, wild-type FGFR1 IIIc isoform; host or cells: Cos-1
Source text: Cell FGFR1—Cell Based Inhibition of Transiently Expressed FGFR1 IIIc Phosphorylation (Measured Using Phospho-Specific Primary and Fluorescent Secondary Antibodies).
This assay is designed to detect inhibitors of transiently expressed FGFR1 phosphorylation by antibody staining of fixed cells detected using ArrayScan technology. (For a description of Array Scan technology see http://www.cellomics.com/content/menu/Arrayscan/)
Cos-1 cells were routinely passaged in DMEM (Gibco BRL, 41966) plus 3% foetal calf serum (FCS), 1% L-glutamine (Gibco BRL, 25030) to a confluence of 80%. To undertake the assay, Cos-1 cells were harvested at 90-95% confluence for cell transfection. […]
The harvested Cos-1 cells are counted using a coulter counter and diluted further with 1% FCS/DMEM to 2.5×10^5 cells/ml. […]
Following incubation at room temperature for 1 hour, the antibody solution was removed and the wells were washed once with 200 ul/well PBS/A. Then 40 μl 1/500 secondary antibody (A111005; goat anti-mouse 594) solution and 1/10000 Hoechst (diluted together in PBS/A with 10% FCS+0.1% Tween 20) were added and the plate incubated in the dark at room temperature for one hour. […] The plates were read on an Arrayscan (Cellomics). […]

[6] = NIH3T3, 3 ng/ml bFGF, read-out: Activity class (Cell pErk)
[7] = FGFR inhibition test, Elisa, read-out: Activity class (FGFR Kinase assay - Elisa)
[8] = polyEAY substrate, 160 μM ATP, read-out: FGFR Kinase assay - Elisa, IC50
[9] = FGFR1 […], 408 uM ATP, mean of n as printed, read-out: FGFR Kinase assay - Caliper, IC50
[10] = FGFR inhibition test, Caliper, read-out: Activity class (FGFR Kinase assay - Caliper)

T1 sequence (P11362 458-765 C488A/C584S): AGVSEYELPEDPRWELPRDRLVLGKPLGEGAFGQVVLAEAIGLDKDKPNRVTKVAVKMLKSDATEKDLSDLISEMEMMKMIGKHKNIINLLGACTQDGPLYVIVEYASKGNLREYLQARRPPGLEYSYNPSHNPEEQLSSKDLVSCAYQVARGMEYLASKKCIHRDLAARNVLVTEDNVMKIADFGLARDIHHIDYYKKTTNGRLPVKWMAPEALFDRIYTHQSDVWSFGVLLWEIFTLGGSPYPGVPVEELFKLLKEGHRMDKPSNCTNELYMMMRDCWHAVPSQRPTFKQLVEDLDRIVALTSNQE
T2 sequence (P11362 22-822): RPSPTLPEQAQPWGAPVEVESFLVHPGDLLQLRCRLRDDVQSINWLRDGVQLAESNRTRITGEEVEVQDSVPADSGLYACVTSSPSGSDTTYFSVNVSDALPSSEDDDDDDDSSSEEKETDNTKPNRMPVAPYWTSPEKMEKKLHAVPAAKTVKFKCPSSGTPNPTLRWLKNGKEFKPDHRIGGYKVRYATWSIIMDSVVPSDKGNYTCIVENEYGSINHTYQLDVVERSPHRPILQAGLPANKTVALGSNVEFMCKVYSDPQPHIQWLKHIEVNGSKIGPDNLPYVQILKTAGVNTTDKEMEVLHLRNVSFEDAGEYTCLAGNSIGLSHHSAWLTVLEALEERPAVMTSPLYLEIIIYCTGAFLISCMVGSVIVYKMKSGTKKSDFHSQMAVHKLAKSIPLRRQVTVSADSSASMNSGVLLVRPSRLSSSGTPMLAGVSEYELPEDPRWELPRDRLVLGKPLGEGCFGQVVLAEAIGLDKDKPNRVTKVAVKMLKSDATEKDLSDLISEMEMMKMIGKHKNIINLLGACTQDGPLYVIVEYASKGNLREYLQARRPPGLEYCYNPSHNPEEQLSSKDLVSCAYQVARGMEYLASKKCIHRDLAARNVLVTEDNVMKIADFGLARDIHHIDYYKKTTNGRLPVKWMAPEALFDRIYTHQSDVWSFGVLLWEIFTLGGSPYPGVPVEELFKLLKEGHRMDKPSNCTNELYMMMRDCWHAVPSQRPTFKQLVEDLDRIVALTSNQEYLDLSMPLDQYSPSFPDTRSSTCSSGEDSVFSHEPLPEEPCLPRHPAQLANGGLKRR
T3 sequence (P11362 22-822): as above

Row | SMILES | IC50 [2, 7] | IC50 [2, 8] | IC50 (FGFR1 active kinase [3]; [9]) | IC50 (FGFR1 active kinase [3]; [10]) | IC50 (FGFR1 active kinase [4]) | IC50 [5] | IC50 [1, 6] | IC50 ([1]; NIH3T3, footnote example, read-out: Cell pErk, value in table footnote)
1 | COc1cc(CCc2cc(NC(=O)c3ccccc3)[nH]n2)cc(OC)c1 [Example 2, N-[5-[2-(3,5-dimethoxyphenyl)ethyl]-2H-pyrazol-3-yl]benzamide] |  |  | 140 nM |  |  |  | < 300 nM | 
2 | COc1cc(CCc2cc(NC(=O)c3ccc(N4CCN(C)CC4)cc3)[nH]n2)cc(OC)c1 [Example 10, N-[5-[2-(3,5-dimethoxyphenyl)ethyl]-2H-pyrazol-3-yl]-4-(4-methylpiperazin-1-yl)benzamide] | < 300 nM |  |  |  | 0.85 nM |  | < 300 nM | 
3 | COc1cccc(CCc2cc(NC(=O)c3ccc(N4CCN(C)CC4)cc3)[nH]n2)c1 [Example 11, N-[5-[2-(3-methoxyphenyl)ethyl]-2H-pyrazol-3-yl]-4-(4-methylpiperazin-1-yl)benzamide] | < 300 nM | 82.8 nM |  |  |  |  | < 300 nM | 
4 | CCNc1ccc(C(=O)Nc2cc(CCc3cccc(OC)c3)n[nH]2)cn1 [Example 18, 6-Ethylamino-N-{5-[2-(3-methoxy-phenyl)-ethyl]-2H-pyrazol-3-yl}-nicotinamide] | 300 to 1000 nM |  | 540 nM | 300 to 1000 nM |  |  | 300 to 1000 nM | 877 nM
5 | COc1cc(CCc2cc(NC(=O)c3ccc(CC(C)N)cc3)n[nH]2)cc(OC)c1 (stereo not drawn) [Example 49, 4-(2-Aminopropyl)-N-[5-[2-(3,5-dimethoxyphenyl)ethyl]-1H-pyrazol-3-yl]benzamide] |  |  |  |  |  | 1470 nM |  | 
6 | COc1cc(CCc2cc(NC(=O)c3ccc(OCCN4CCC(F)(F)CC4)cc3)n[nH]2)cc(OC)c1 [Example 55, 4-[2-(4,4-Difluoro-1-piperidyl)ethoxy]-N-[5-[2-(3,5-dimethoxyphenyl)ethyl]-1H-pyrazol-3-yl]benzamide] |  |  |  |  |  | 460 nM |  | 

More lines, main results first:

Row | IC50 [2, 7] | IC50 [2, 8] | IC50 (FGFR1 active kinase [3]; [9]) | IC50 (FGFR1 active kinase [3]; [10]) | IC50 (FGFR1 active kinase [4]) | IC50 [5] | SMILES | IC50 [1, 6] | IC50 ([1]; NIH3T3, footnote example, read-out: Cell pErk, value in table footnote)
7 | < 300 nM | 220 nM |  |  |  |  | CN1CCN(c2ccc(C(=O)Nc3cc(CCc4ccccc4)n[nH]3)cc2)CC1 [Example 1, 4-(4-methylpiperazin-1-yl)-N-(5-phenethyl-2H-pyrazol-3-yl)benzamide] | 300 to 1000 nM | 
8 | < 300 nM |  | 47 nM | < 300 nM |  |  | CN1CCN(c2ccc(C(=O)Nc3cc(CCc4cccnc4)n[nH]3)cc2)CC1 [Example 7, 4-(4-methylpiperazin-1-yl)-N-[5-(2-pyridin-3-ylethyl)-2H-pyrazol-3-yl]benzamide] | 1000 to 30000 nM | 
9 | < 300 nM | 79.5 nM |  | < 300 nM |  |  | CN1CCN(c2ccc(C(=O)Nc3cc(CCc4ccco4)n[nH]3)cc2)CC1 [Example 8, N-[5-[2-(2-furyl)ethyl]-2H-pyrazol-3-yl]-4-(4-methylpiperazin-1-yl)benzamide] | < 300 nM | 
10 | < 300 nM |  | 137 nM | < 300 nM |  |  | CN1CCN(c2ccc(C(=O)Nc3cc(CCc4ccoc4)n[nH]3)cc2)CC1 [Example 9, N-[5-[2-(3-furyl)ethyl]-2H-pyrazol-3-yl]-4-(4-methylpiperazin-1-yl)benzamide] | 300 to 1000 nM | 
